Reference: patent publication US20180273528A1 (LES LABORATOIRES SERVIER, priority 2015, published 2018)

Legend:
DYRK1A [1] = molecular target: T1, DYRK1A (Homo sapiens, UniProt Q13627); assay: Cellular DYRK1 autophosphorylation assay in U2-OS cells; assay type: cell-based; design: full-length, wild-type human DYRK1A (NM_001396) with an HA tag; expressed in transfected cells; host or cells: human U2-OS osteosarcoma cells, transient transfection of a pcDNA3.1 plasmid; conditions: U2-OS cells transfected with HA-tagged human DYRK1A, 5 hours exposure; read-out: IC50 (μM) P-Ser520-Dyrk1A -Cell assay
How it was run: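 U2-OS cells treated with a compound concentration range for 5 h. Phospho-Ser520-DYRK1A measured by western blot densitometry or Mesoscale ELISA. IC50 from dose-response curves; for blots, ratio of phospho-Ser520 to total DYRK1A signal.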

DYRK1A [2] = molecular target: T1, DYRK1A; assay: Kinase TR-FRET assay, DYRK1A; assay type: biochemical; design: full-length, wild-type human DYRK1A (NM_001396) with an HA tag; expressed in transfected cells; host or cells: human U2-OS osteosarcoma cells, transient transfection of a pcDNA3.1 plasmid; conditions: full-length human kinase, 10 μM ATP
How it was run: (§1)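 Compounds tested at 0.1 nM to 30 μM in reaction buffer; reaction stopped with 10 mM EDTA. Phosphorylated MBP detected with 1 nM Europium-labelled anti-phospho-Thr232 antibody by TR-FRET.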

DYRK1B = molecular target: T2, DYRK1B (Homo sapiens, UniProt Q9Y463); assay: Kinase TR-FRET assay, DYRK1B; assay type: biochemical; conditions: full-length human kinase, 10 μM ATP
T2 construct: full-length human kinases from Carna Biosciences; purchased Carna Biosciences 04-131
How it was run: as §1

[3] = molecular target: T3, His-TEV-DYRK1A Kinase domain (aa127-485) (Homo sapiens, UniProt Q13627); assay: Kinase ADP assay (ADP Hunter), DYRK1A kinase domain; assay type: biochemical; conditions: 20 μM ATP
T3 construct: His-TEV-DYRK1A Kinase domain (aa127-485); His tag (N); TEV protease cleavage site (N)
How it was run: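 Compounds incubated 10 min at 30 °C with 20 nM enzyme, 40 μM peptide substrate and 20 μM ATP in pH 7.4 Hepes buffer with 10 mM MgCl2. ADP formed detected by ADP Hunter Plus reagents after 20 min at 30 °C, fluorescence read at 590 nm.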

CLK1 = molecular target: T4, CLK1 (Homo sapiens, UniProt P49759); assay: Kinase TR-FRET assay, CLK1; assay type: biochemical; conditions: full-length human kinase, 10 μM ATP
T4 construct: full-length human kinases from Carna Biosciences; purchased Carna Biosciences 04-126
Protocol: Inhibition of the enzymatic activity of human kinases was evaluated in a Time-Resolved Fluorescence Resonance Energy Transfer (TR-FRET) assay in 384-well reaction plates. […] Test compounds of the invention were added in reaction buffer at a range of concentrations from 0.1 nM to 30 μM. Following addition of EDTA (Sigma E7889, 10 mM) to stop the reaction, Europium-labelled mouse monoclonal antibody recognizing phospho-Thr232 in MBP (Perkin Elmer TRF0201, 1 nM) was added.

CDK9 = molecular target: T5, CDK9 (Homo sapiens, UniProt P50750); assay: Kinase TR-FRET assay, CDK9; assay type: biochemical; conditions: full-length human kinase, 10 μM ATP
T5 construct: full-length human kinases from Carna Biosciences; purchased Carna Biosciences 04-110
How it was run: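 Full-length human CDK9 (0.9 ng/μl) incubated 100 min at room temperature with 10 μM ATP, 100 nM ULight-MBP peptide and compound (0.1 nM–30 μM) in 50 mM HEPES pH 7.4, 1 mM EGTA, 10 mM MgCl2, 2 mM DTT, 0.01% Tween20. Stopped with 10 mM EDTA, then 1 nM Eu-anti-phospho-Thr232 MBP antibody added for 1 h. TR-FRET read at 665/620 nm with 340 nm excitation.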

T2 sequence (Q9Y463 whole entry): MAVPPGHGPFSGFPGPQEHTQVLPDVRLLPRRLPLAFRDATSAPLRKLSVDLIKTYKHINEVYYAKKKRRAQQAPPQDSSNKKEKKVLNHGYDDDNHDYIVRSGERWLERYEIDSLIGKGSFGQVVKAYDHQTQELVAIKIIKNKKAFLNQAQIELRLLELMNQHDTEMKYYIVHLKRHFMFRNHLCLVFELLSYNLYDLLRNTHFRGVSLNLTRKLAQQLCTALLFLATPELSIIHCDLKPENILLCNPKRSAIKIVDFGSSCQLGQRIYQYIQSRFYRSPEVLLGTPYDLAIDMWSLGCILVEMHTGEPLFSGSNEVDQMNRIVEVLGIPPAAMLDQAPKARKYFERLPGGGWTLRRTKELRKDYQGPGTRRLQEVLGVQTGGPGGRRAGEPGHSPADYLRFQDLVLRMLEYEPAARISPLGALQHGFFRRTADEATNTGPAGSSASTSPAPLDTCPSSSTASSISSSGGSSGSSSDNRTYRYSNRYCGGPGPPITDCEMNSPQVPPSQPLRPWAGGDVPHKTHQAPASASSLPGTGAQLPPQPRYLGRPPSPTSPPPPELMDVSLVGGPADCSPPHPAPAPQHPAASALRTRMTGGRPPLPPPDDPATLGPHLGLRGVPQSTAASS
T5 sequence (P50750 whole entry): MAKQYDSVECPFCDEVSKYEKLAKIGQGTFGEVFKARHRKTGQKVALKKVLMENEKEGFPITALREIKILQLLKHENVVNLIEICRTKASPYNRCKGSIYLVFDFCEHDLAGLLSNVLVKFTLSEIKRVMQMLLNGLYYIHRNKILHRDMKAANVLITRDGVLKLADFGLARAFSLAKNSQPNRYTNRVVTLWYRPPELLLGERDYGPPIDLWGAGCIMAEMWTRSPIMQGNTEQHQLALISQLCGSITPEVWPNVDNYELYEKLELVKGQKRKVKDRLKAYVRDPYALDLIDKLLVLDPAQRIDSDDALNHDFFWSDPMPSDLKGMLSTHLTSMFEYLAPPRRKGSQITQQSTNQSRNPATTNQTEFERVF
T5 sequence (O60563 whole entry partner): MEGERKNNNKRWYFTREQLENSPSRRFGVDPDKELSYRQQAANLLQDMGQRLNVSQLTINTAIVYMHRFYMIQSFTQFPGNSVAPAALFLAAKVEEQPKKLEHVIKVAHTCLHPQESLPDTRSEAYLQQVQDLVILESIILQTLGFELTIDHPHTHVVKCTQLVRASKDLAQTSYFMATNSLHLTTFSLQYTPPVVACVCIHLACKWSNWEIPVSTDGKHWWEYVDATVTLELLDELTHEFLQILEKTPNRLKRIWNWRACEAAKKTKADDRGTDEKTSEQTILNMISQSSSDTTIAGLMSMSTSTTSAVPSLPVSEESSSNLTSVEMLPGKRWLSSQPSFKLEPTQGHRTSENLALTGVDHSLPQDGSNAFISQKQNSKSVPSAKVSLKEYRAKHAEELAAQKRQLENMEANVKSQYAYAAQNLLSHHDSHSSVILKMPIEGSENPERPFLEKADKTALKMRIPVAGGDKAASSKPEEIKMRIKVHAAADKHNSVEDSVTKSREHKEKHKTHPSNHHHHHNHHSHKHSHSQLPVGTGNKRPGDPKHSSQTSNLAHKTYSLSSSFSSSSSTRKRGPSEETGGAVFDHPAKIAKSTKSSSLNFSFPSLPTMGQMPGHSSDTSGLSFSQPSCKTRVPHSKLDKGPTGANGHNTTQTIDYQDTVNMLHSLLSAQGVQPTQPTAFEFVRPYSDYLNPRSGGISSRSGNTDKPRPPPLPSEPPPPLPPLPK
T4 sequence (P49759 1-526 isoform P49759-3): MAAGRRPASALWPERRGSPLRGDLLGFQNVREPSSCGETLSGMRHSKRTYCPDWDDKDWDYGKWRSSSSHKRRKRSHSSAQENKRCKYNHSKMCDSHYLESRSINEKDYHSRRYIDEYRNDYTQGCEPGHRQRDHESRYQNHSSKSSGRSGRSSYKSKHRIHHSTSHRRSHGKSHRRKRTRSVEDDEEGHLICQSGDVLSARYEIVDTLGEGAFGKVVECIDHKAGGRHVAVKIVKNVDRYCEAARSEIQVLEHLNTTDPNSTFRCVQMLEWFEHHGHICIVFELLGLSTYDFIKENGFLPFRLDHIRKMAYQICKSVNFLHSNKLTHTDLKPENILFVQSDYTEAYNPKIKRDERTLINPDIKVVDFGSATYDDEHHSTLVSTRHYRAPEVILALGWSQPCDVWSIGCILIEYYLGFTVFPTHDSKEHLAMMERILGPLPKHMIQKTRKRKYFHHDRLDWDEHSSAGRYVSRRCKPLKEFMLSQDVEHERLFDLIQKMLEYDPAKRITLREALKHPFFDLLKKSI

| Structure (SMILES) | IC50 (DYRK1A [1]) | IC50 (DYRK1A [2]) | IC50 (DYRK1B) | IC50 [3] | IC50 (CLK1) | IC50 (CDK9) |
| --- | --- | --- | --- | --- | --- | --- |
| Cc1nc2ccc(-c3cc(N)nc(N)c3)nc2n1C[C@H](C)Oc1ccccc1 (single isomer, unassigned) [Example 107] | 0.111 µM | 0.008 µM | 0.007 µM | 0.012 µM | 0.037 µM | > 3 µM |
| Cc1nc2ccc(-c3cc(N)nc(N)c3)nc2n1C[C@H]1C[C@@H]1c1ccccc1 (single isomer, unassigned) [Example 109] | 0.22 µM | 0.01 µM | 0.015 µM | 0.03 µM | 0.025 µM | > 3 µM |
| Cc1nc2ccc(-c3cc(N)nc(N)c3)nc2n1CC1Cc2ccccc21 (single isomer, unassigned) [Example 112, 4-[3-(bicyclo[4.2.0]octa-1,3,5-trien-7-ylmethyl)-2-methyl-3H-imidazo[4,5-b]pyridin-5-yl]pyridine-2,6-diamine] | 0.09 µM | 0.006 µM | 0.014 µM | 0.005 µM | 0.025 µM | 2.62 µM |
| Cc1nc2ccc(-c3cc(N)nc(N)c3)nc2n1C[C@H](C)Oc1ccccn1 (single isomer, unassigned) [Example 174] |  | 0.016 µM | 0.013 µM | 0.074 µM | 0.083 µM | > 3 µM |
| Cc1nc2ccc(-c3cc(N)nc(N)c3)nc2n1C[C@@H](C)Oc1ccccn1 (single isomer, unassigned) [Example 175] | 0.131 µM | 0.007 µM | 0.016 µM | 0.02 µM | 0.04 µM | > 3 µM |
| Cc1nc2ccc(-c3cc(N)nc(N)c3)nc2n1C[C@@H](C)Oc1cccc(Cl)n1 (single isomer, unassigned) [Example 177] | 0.042 µM | 0.005 µM | 0.005 µM | 0.014 µM | 0.017 µM | 0.554 µM |
| Cc1nc2ccc(-c3cc(N)nc(N)c3)nc2n1C[C@@H](C)Oc1cccc(F)n1 (single isomer, unassigned) [Example 189] | 0.026 µM | 0.007 µM | 0.007 µM | 0.013 µM | 0.017 µM | 0.339 µM |
| C=CCCn1c(C)nc2ccc(-c3cc(N)nc(N)c3)nc21 [Example 14, 4-[3-(but-3-en-1-yl)-2-methyl-3H-imidazo[4,5-b]pyridin-5-yl]pyridine-2,6-diamine] | 0.05 µM | 0.002 µM | 0.001 µM | 0.008 µM | 0.016 µM | 1.95 µM |
| Cc1nc2ccc(-c3cc(N)nc(N)c3)nc2n1C1CCC1 [Example 23, 4-(3-cyclobutyl-2-methyl-3H-imidazo[4,5-b]pyridin-5-yl)pyridine-2,6-diamine] | 0.017 µM | 0.002 µM | 0.008 µM | 0.006 µM | 0.012 µM | 0.57 µM |
| Cc1nc2ccc(-c3cc(N)nc(N)c3)nc2n1C1CCOCC1 [Example 49, 4-[2-methyl-3-(tetrahydro-2H-pyran-4-yl)-3H-imidazo[4,5-b]pyridin-5-yl]pyridine-2,6-diamine] | 0.13 µM | 0.003 µM | 0.017 µM | 0.011 µM | 0.017 µM | 0.979 µM |
| C=CCn1c(C)nc2ccc(-c3cc(N)nc(N)c3)nc21 [Example 51, 4-[2-methyl-3-(prop-2-en-1-yl)-3H-imidazo[4,5-b]pyridin-5-yl]pyridine-2,6-diamine] | 0.038 µM | 0.006 µM | 0.001 µM | 0.007 µM | 0.029 µM | 4.37 µM |
| CCCCCn1c(C)nc2ccc(-c3cc(N)nc(N)c3)nc21 [Example 65, 4-(2-methyl-3-pentyl-3H-imidazo[4,5-b]pyridin-5-yl)pyridine-2,6-diamine] | 0.022 µM | 0.001 µM | 0.005 µM | 0.006 µM | 0.018 µM | > 10 µM |
| COc1ccc2c(c1)CC(n1c(C)nc3ccc(-c4cc(N)nc(N)c4)nc31)C2 (stereo not drawn) [Example 98, 4-[3-(5-methoxy-2,3-dihydro-1H-inden-2-yl)-2-methyl-3H-imidazo[4,5-b]pyridin-5-yl]pyridine-2,6-diamine] | 0.019 µM | 0.004 µM | 0.009 µM | 0.007 µM | 0.015 µM |  |
| Cc1nc2ccc(-c3cc(N)nc(N)c3)nc2n1CC1Cc2ccccc2C1 [Example 114, 4-[3-(2,3-dihydro-1H-inden-2-ylmethyl)-2-methyl-3H-imidazo[4,5-b]pyridin-5-yl]pyridine-2,6-diamine] | 0.039 µM | 0.005 µM | 0.009 µM | 0.005 µM | 0.019 µM |  |
| CCCCn1c(CCC)nc2ccc(-c3cc(N)nc(N)c3)nc21 [Example 161, 4-(3-butyl-2-propyl-3H-imidazo[4,5-b]pyridin-5-yl)pyridine-2,6-diamine] | 0.143 µM |  | 0.005 µM | 0.02 µM | 0.218 µM | > 10 µM |
| Cc1nc2ccc(-c3cc(N)nc(N)c3)nc2n1CCOc1cccc(Cl)n1 [Example 165, 4-(3-{2-[(6-chloropyridin-2-yl)oxy]ethyl}-2-methyl-3H-imidazo[4,5-b]pyridin-5-yl)pyridine-2,6-diamine] | 0.026 µM | 0.003 µM | 0.005 µM | 0.009 µM | 0.015 µM |  |
| Cc1nc2ccc(-c3cc(N)nc(N)c3)nc2n1CCOc1cccc(Br)n1 [Example 168, 4-(3-{2-[(6-bromopyridin-2-yl)oxy]ethyl}-2-methyl-3H-imidazo[4,5-b]pyridin-5-yl)pyridine-2,6-diamine] | 0.032 µM | 0.002 µM | 0.006 µM | 0.011 µM | 0.015 µM |  |
| COc1cccc(OCCn2c(C)nc3ccc(-c4cc(N)nc(N)c4)nc32)c1 [Example 202, 4-{3-[2-(3-methoxyphenoxy)ethyl]-2-methyl-3H-imidazo[4,5-b]pyridin-5-yl}pyridine-2,6-diamine] | 0.18 µM |  |  | 0.023 µM | 0.018 µM |  |
| Cc1nc2ccc(-c3cc(N)nc(N)c3)nc2n1CCOc1ccccc1F [Example 203, 4-{3-[2-(2-fluorophenoxy)ethyl]-2-methyl-3H-imidazo[4,5-b]pyridin-5-yl}pyridine-2,6-diamine] | 0.148 µM |  |  | 0.017 µM | 0.016 µM |  |
| Cc1nc2ccc(-c3cc(N)nc(N)c3)nc2n1CCOc1ccc(Cl)cc1 [Example 207, 4-{3-[2-(4-chlorophenoxy)ethyl]-2-methyl-3H-imidazo[4,5-b]pyridin-5-yl}pyridine-2,6-diamine] | 0.12 µM |  |  | 0.026 µM | 0.021 µM |  |
| CCn1c(C#N)nc2ccc(-c3cc(N)nc(N)c3)nc21 [Example 223, 5-(2,6-diaminopyridin-4-yl)-3-ethyl-3H-imidazo[4,5-b]pyridine-2-carbonitrile] | 0.097 µM |  |  | 0.009 µM | 0.02 µM |  |
| N#Cc1nc2ccc(-c3cc(N)nc(N)c3)nc2n1C1CC1 [Example 224, 3-cyclopropyl-5-(2,6-diaminopyridin-4-yl)-3H-imidazo[4,5-b]pyridine-2-carbonitrile] | 0.057 µM |  |  | 0.009 µM | 0.02 µM |  |
| Cn1c(C#N)nc2ccc(-c3cc(N)nc(N)c3)nc21 [Example 227, 5-(2,6-diaminopyridin-4-yl)-3-methyl-3H-imidazo[4,5-b]pyridine-2-carbonitrile] | 0.262 µM |  |  | 0.01 µM | 0.042 µM |  |
